Data taken from patent publication US7723384B2, “Keto lactam compounds and use thereof” (Abbott GmbH & Co. KG., priority 2003, dated 2010).
Where a name gives a salt, the structure may show the parent alone.

What was measured:
[1] = molecular target: T1, human dopamine D2L receptors (long isoform) (Homo sapiens, UniProt P14416); test: Dopamine D2L receptor binding, displacement of [125I]-iodospiperone; details: ratio Ki(D2L)/Ki(D3); HEK-293 membranes with human D2L and D3 receptors
T1 construct: expressed in transfected cells; membranes)
T1 sequence (P14416 whole entry, canonical isoform): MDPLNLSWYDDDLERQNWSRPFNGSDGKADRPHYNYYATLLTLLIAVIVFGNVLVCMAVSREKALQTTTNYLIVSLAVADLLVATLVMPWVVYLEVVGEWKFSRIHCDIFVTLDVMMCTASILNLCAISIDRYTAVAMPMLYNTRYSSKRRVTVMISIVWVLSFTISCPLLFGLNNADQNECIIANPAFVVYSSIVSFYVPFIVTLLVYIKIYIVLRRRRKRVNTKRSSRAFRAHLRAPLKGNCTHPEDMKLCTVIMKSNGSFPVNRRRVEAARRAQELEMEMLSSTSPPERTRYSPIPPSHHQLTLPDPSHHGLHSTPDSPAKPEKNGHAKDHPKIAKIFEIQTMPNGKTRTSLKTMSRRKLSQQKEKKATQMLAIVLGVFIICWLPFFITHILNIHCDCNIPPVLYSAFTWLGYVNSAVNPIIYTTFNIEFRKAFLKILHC
Method: (§1) The substance to be tested was dissolved either in methanol/Chremophor® (BASF-AG) or in dimethyl sulfoxide and then diluted with water to the desired concentration.
II. Dopamine D2L Receptor:
(§2) Triplicate mixtures were carried out.
The incubation buffer comprised 50 mM Tris, 120 mM NaCl, 5 mM KCl, 2 mM CaCl2, 2 mM MgCl2 and 0.1% bovine serum albumin. The buffer was adjusted to pH 7.4 with HCl.
(§3) III. Measurement and Evaluation:
(§4) After incubation at 25° C. for 60 minutes, the mixtures were filtered under vacuum through Whatman GF/B glass fiber filters using a cell harvester. The filters were transferred by a filter transfer system into scintillation vials. After addition of 4 ml of Ultima Gold® (Packard), the samples were shaken for one hour and then the radioactivity was counted in a beta counter (Packard, Tricarb 2000 or 2200CA). The cp values were converted into dpm by means of a standard quench series with the aid of the instrument's own program.
(§5) Evaluation of the inhibition plots took place by iterative nonlinear regression analysis using the Statistical Analysis System (SAS) similar to the “LIGAND” program described by Munson and Rodbard.

[2] = molecular target: T2, human dopamine D3 receptors (Homo sapiens, UniProt P35462); test: Dopamine D3 receptor binding, displacement of [125I]-iodosulpride; details: membranes from HEK-293 cells with stably expressed human D3 receptors, 0.1 nM [125I]-iodosulpride
T2 construct: expressed in transfected cells; membranes)
T2 sequence (P35462 whole entry): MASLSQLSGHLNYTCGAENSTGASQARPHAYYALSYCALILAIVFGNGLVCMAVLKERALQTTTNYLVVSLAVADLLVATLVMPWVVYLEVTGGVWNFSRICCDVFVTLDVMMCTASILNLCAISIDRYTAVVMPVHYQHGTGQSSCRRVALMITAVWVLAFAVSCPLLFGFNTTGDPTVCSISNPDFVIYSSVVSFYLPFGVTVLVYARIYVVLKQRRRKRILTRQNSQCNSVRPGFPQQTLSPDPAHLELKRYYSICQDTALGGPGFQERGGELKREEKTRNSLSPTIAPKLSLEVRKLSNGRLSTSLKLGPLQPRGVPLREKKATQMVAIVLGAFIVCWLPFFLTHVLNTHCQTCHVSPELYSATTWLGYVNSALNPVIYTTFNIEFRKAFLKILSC
Method: as §1, §2
The incubation buffer comprised 50 mM Tris, 120 mM NaCl, 5 mM KCl, 2 mM CaCl2, 2 mM MgCl2 and 0.1% bovine serum albumin, 10 μM quinolone, 0.1% ascorbic acid (prepared fresh each day). The buffer was adjusted to pH 7.4 with HCl.
as §3, §4, §5

| Compound | Selectivity vs. D2L (Ki(D2L)/Ki(D3)) [1] | Ki [2] [nM] |
| --- | --- | --- |
| CC(C)(C)c1nc(N2CCN(C/C=C/CN3C(=O)CCC(=O)c4ccccc43)CC2)cc(C(F)(F)F)n1 [Example 4, 1-((2E)-4-{4-[2-tert-Butyl-6-(trifluoromethyl)pyrimidin-4-yl]piperazin-1-yl}but-2-enyl)-3,4-dihydro-1H-1-benzazepine-2,5-dione] | 155 | 1.74 |
| COc1cc2c(cc1OC)N(CCCCN1CCN(c3cc(C(F)(F)F)nc(C(C)(C)C)n3)CC1)C(=O)CCC2=O [Example 6, 1-(4-{4-[2-tert-Butyl-6-(trifluoromethyl)pyrimidin-4-yl]piperazin-1-yl}butyl)-7,8-dimethoxy-3,4-dihydro-1H-1-benzazepine-2,5-dione] | 104 | 4.5 |
| CCCc1cc(N2CCN(CCCCN3C(=O)CCC(=O)c4ccccc43)CC2)nc(C(C)(C)C)n1.Cl [Example 7, 1-{4-[4-(2-tert-Butyl-6-propylpyrimidin-4-yl)piperazin-1-yl]butyl}-3,4-dihydro-1H-1-benzazepine-2,5-dione hydrochloride] | 118 | 1.33 |
| O=C(O)/C=C/C(=O)O.O=C1CCC(=O)N(CCCCN2CCN(c3cc(C(F)(F)F)cc(C(F)(F)F)c3)CC2)c2ccccc21 [Example 87, 1-{4-[4-(3,5-Bis(trifluoromethyl)phenyl)piperazin-1-yl]butyl}-3,4-dihydro-1H-benzo[b]azepine-2,5-dione fumarate] | 129 | 7.4 |

Further lines, results first:

| Selectivity vs. D2L (Ki(D2L)/Ki(D3)) [1] | Ki [2] [nM] | Compound |
| --- | --- | --- |
| 74 | 1.24 | CC(C)(C)c1cc(N2CCN(CCCCN3C(=O)CCC(=O)c4ccccc43)CC2)nc(C(C)(C)C)n1.Cl [Example 10, 1-{4-[4-(2,6-Di-tert-butylpyrimidin-4-yl)piperazin-1-yl]butyl}-3,4-dihydro-1H-1-benzazepine-2,5-dione hydrochloride] |
| 62 | 0.96 | CC(C)(C)c1nc(C2CC2)cc(N2CCN(CCCCN3C(=O)CCC(=O)c4ccccc43)CC2)n1 [Example 16, 1-{4-[4-(2-tert-Butyl-6-cyclopropylpyrimidin-4-yl)piperazin-1-yl]butyl}-3,4-dihydro-1H-benzo[b]azepine-2,5-dione] |
| 56 | 2 | O=C1CCC(=O)N(CCCCN2CCN(c3cc(Cl)cc(Cl)c3)CC2)c2ccccc21 [Example 86, 1-{4-[4-(3,5-Dichlorophenyl)-2,5-piperazin-1-yl]butyl}-3,4-dihydro-1H-benzo[b]azepine-2,5-dione fumarate] |
